Reference: the NIST ThermoML archive (doi:10.1021/je400486p)

Experiment: xn = mol fraction of the nth substance listed
Settings: 101.3 kPa, Liquid; for viscosity: Concentric cylinders viscometry; for mass density: Vibrating tube method

COCCOCCOCCOCCOC [2,5,8,11,14-pentaoxapentadecane] + CCC(C)O
Settings | mass density [kg/m3] | viscosity [mPa·s]
288.15 K, x2 = 0 | 1015.63 | 4.341
288.15 K, x2 = 0.1007 | 1006.23 | 4.092
288.15 K, x2 = 0.2003 | 995.702 | 3.792
288.15 K, x2 = 0.3015 | 983.46 | 3.531
288.15 K, x2 = 0.3991 | 969.921 | 3.342
288.15 K, x2 = 0.5011 | 953.53 | 3.157
288.15 K, x2 = 0.6024 | 934.399 | 2.972
288.15 K, x2 = 0.6997 | 912.674 | 2.853
288.15 K, x2 = 0.7998 | 885.897 | 2.874
288.15 K, x2 = 0.9004 | 852.63 | 3.166
293.15 K, x2 = 0 | 1011 | 3.834
293.15 K, x2 = 0.1007 | 1001.61 | 3.582
293.15 K, x2 = 0.2003 | 991.093 | 3.32
293.15 K, x2 = 0.3015 | 978.877 | 3.099
293.15 K, x2 = 0.3991 | 965.365 | 2.941
293.15 K, x2 = 0.5011 | 949.011 | 2.776
293.15 K, x2 = 0.6024 | 929.939 | 2.61
293.15 K, x2 = 0.6997 | 908.32 | 2.498
293.15 K, x2 = 0.7998 | 881.561 | 2.497
293.15 K, x2 = 0.9004 | 848.418 | 2.705
298.15 K, x2 = 0 | 1006.36 | 3.38
298.15 K, x2 = 0.1007 | 996.991 | 3.158
298.15 K, x2 = 0.2003 | 986.495 | 2.937
298.15 K, x2 = 0.3015 | 974.305 | 2.75
298.15 K, x2 = 0.3991 | 960.825 | 2.603
298.15 K, x2 = 0.5011 | 944.498 | 2.461
298.15 K, x2 = 0.6024 | 925.479 | 2.316
298.15 K, x2 = 0.6997 | 903.877 | 2.21
298.15 K, x2 = 0.7998 | 877.228 | 2.187
298.15 K, x2 = 0.9004 | 844.144 | 2.337
303.15 K, x2 = 0 | 1001.73 | 3.004
303.15 K, x2 = 0.1007 | 992.377 | 2.805
303.15 K, x2 = 0.2003 | 981.894 | 2.627
303.15 K, x2 = 0.3015 | 969.723 | 2.472
303.15 K, x2 = 0.3991 | 956.258 | 2.344
303.15 K, x2 = 0.5011 | 939.966 | 2.205
303.15 K, x2 = 0.6024 | 920.978 | 2.068
303.15 K, x2 = 0.6997 | 899.43 | 1.967
303.15 K, x2 = 0.7998 | 872.81 | 1.933
303.15 K, x2 = 0.9004 | 839.81 | 2.037
308.15 K, x2 = 0 | 997.104 | 2.691
308.15 K, x2 = 0.1007 | 987.755 | 2.513
308.15 K, x2 = 0.2003 | 977.28 | 2.363
308.15 K, x2 = 0.3015 | 965.119 | 2.229
308.15 K, x2 = 0.3991 | 951.674 | 2.111
308.15 K, x2 = 0.5011 | 935.407 | 1.984
308.15 K, x2 = 0.6024 | 916.445 | 1.859
308.15 K, x2 = 0.6997 | 894.917 | 1.762
308.15 K, x2 = 0.7998 | 868.357 | 1.72
308.15 K, x2 = 0.9004 | 835.418 | 1.786
313.15 K, x2 = 0 | 992.481 | 2.426
313.15 K, x2 = 0.1007 | 983.135 | 2.269
313.15 K, x2 = 0.2003 | 972.669 | 2.139
313.15 K, x2 = 0.3015 | 960.509 | 2.022
313.15 K, x2 = 0.3991 | 947.072 | 1.914
313.15 K, x2 = 0.5011 | 930.813 | 1.796
313.15 K, x2 = 0.6024 | 911.86 | 1.681
313.15 K, x2 = 0.6997 | 890.367 | 1.59
313.15 K, x2 = 0.7998 | 863.83 | 1.54
313.15 K, x2 = 0.9004 | 830.95 | 1.575
318.15 K, x2 = 0 | 987.859 | 2.199
318.15 K, x2 = 0.1007 | 978.511 | 2.069
318.15 K, x2 = 0.2003 | 968.041 | 1.949
318.15 K, x2 = 0.3015 | 955.883 | 1.836
318.15 K, x2 = 0.3991 | 942.446 | 1.73
318.15 K, x2 = 0.5011 | 926.193 | 1.629
318.15 K, x2 = 0.6024 | 907.25 | 1.529
318.15 K, x2 = 0.6997 | 885.759 | 1.445
318.15 K, x2 = 0.7998 | 859.246 | 1.385
318.15 K, x2 = 0.9004 | 826.396 | 1.397
323.15 K, x2 = 0 | 983.234 | 2.006
323.15 K, x2 = 0.1007 | 973.877 | 1.892
323.15 K, x2 = 0.2003 | 963.397 | 1.787
323.15 K, x2 = 0.3015 | 951.237 | 1.687
323.15 K, x2 = 0.3991 | 937.792 | 1.591
323.15 K, x2 = 0.5011 | 921.533 | 1.495
323.15 K, x2 = 0.6024 | 902.591 | 1.402
323.15 K, x2 = 0.6997 | 881.097 | 1.32
323.15 K, x2 = 0.7998 | 854.581 | 1.259
323.15 K, x2 = 0.9004 | 821.735 | 1.243
